Source: paper PMC8199124, “Design, Synthesis and In-Vitro Biological Evaluation of Antofine and Tylophorine Prodrugs as Hypoxia-Targeted Anticancer Agents” (Molecules, 2021)
Converted amounts (≈) assume the structure as drawn. Where two headings read alike, the source gives them in different places.

Key:
[1] = Solubility in PBS (pH 7.4); format: physicochemical; details: aqueous buffer, mean ± SE
Protocol: (§1) Water solubility, logD, and PAMPA-BBB were evaluated using the protocols we previously described.

LogD determination = format: physicochemical; details: mean ± SE
Protocol: as §1

[2] = BBB-Parallel Artificial Membrane Permeability Assay (BBB-PAMPA); format: in vitro ADME; details: mean ± SE
Protocol: The physicochemical properties of the new compounds were evaluated (Table 1). […] Consequently, these derivatives lost their BBB penetrability, as predicted by the BBB-Parallel Artificial Membrane Permeability Assay (BBB-PAMPA), whereas their parent alkaloids had free passage through the BBB.
as §1

[3] = Plasma protein binding (PPB); format: in vitro ADME; details: mean ± SE, read-out: PPB (% of Bound Compound) (converted)
Protocol: The physicochemical properties of the new compounds were evaluated (Table 1).

[4] = Mouse plasma stability test; format: in vitro ADME; details: 37 °C, up to 24 h, read-out: t1/2 (Mouse Plasma) (converted)
Protocol: (§2) Incubations were carried out in 6 aliquots of 70 μL each in duplicates. […] The reactions were stopped by adding 350 μL of acetonitrile with subsequent plasma proteins sedimentation by centrifuging at 5500 rpm for 5 min. Supernatants were analyzed by LC-MS using Shimadzu VP HPLC system including vacuum degasser, gradient pumps, reverse phase column, column oven and autosampler. The HPLC system was coupled with tandem mass spectrometer API 3000 (PE Sciex, Foster City, CA, USA). Both the positive and negative ion modes of the TurboIonSpray ion source were used. The acquisition and analysis of the data were performed using Analyst 1.5.2 software (PE Sciex, API 3000 mass spectrometer, Foster City, CA, USA). The percentage of the test compounds remaining after incubation in plasma and their half-lives (T1/2) were calculated.

[5] = Human plasma stability test; format: in vitro ADME; details: 37 °C, up to 24 h, read-out: t1/2 (Human Plasma) (converted)
Protocol: as §2

in vitro = details: male, Balb/c, pH 7.4
Protocol: Mouse hepatic microsomes were isolated from pooled, perfused livers of Balb/c male mice according to the standard protocol. […] Microsomal incubations were carried out in 96-well plates in 5 aliquots of 40 μL each. […] Control incubations were performed by replacing the NADPH-cofactor system with PBS. The additional control incubations in PBS (with 3.3 mM MgCl2) without added microsomes were carried out in this study. […] The incubations were performed in duplicates. Five time points over 40 min had been analyzed. The reactions were stopped by adding 12 volumes of 90% acetonitrile-water to incubation aliquots, followed by protein sedimentation by centrifuging at 5500 rpm for 3 min. The supernatants were analyzed using LC-MS as mentioned above.

HEK293 = test: Cytotoxicity (MTT) under normoxia, HEK293; format: cell-based; details: Homo sapiens, HEK293, read-out: IC50 HEK293
Protocol: (§3) The cytotoxicity of the compounds 5a–c and their parent alkaloids was evaluated by the 3-[4,5-dimethylthiazole-2-yl]-2,5-diphenyltetrazolium bromide (MTT) assay against 5 cancerous and 2 non-cancerous cell lines (Table 4).
(§4) The eight cell lines HEK293 (Human embryonic kidney 293), CHO-K1 (Chinese hamster ovary K1), MCF-7 cells (Human breast adenocarcinoma), HCT116 (human colorectal carcinoma), RKO (Human rectal carcinoma), SW480 (human colorectal carcinoma), H460 (Human lung cancer), and MRC5 (Normal human foetal lung fibroblast), were obtained from the ATCC. The cell lines were routinely grown in alpha minimum essential medium (α-MEM) containing 5% foetal calf serum (FCS). The appropriate number of cells (HCT116 = 400 cells/well, H460 cells = 600 cells/well) were seeded into 96-well plates under normoxic or hypoxic conditions. Cells were plated in 100 µL α-MEM containing 10% FCS, 10mM D-Glucose and 0.2mM 2′-deoxycytidine. After incubation for 2 h, the compounds were added at the appropriate concentration and incubated for further 4 h. The cells were then washed three times with drug-free α-MEM (containing 5% FCS and pen/strep). The plates were then incubated for 5 days under normoxic conditions. The cells were stained with sulphorhodamine B to measure total cells. The IC50 was determined by interpolation as the compound concentration reducing staining to 50% of controls on the same plate.

CHO-K1 = test: Cytotoxicity (MTT) under normoxia, CHO-K1; format: cell-based, Chinese hamster; details: Cricetulus griseus, CHO-K1, read-out: IC50 CHO-K1
Protocol: as §3, §4

MCF7 = test: Cytotoxicity (MTT) under normoxia, MCF7; format: cell-based; details: Homo sapiens, MCF7, read-out: IC50 MCF7
Protocol: as §3, §4

HCT116 [6] = test: Cytotoxicity (MTT) under normoxia, HCT116; format: cell-based; details: Homo sapiens, HCT-116, read-out: IC50 HCT116
Protocol: as §3, §4

RKO = test: Cytotoxicity (MTT) under normoxia, RKO; format: cell-based; details: Homo sapiens, read-out: IC50 RKO
Protocol: as §3, §4

SW480 = test: Cytotoxicity (MTT) under normoxia, SW480; format: cell-based; details: Homo sapiens, SW480, read-out: IC50 SW480
Protocol: as §3, §4

MRC5 = test: Cytotoxicity (MTT) under normoxia, MRC5; format: cell-based; details: Homo sapiens, MRC5, read-out: IC50 MRC5
Protocol: as §3, §4

HCT116 [7] = test: Cytotoxicity under normoxia and hypoxia (anaerobic chamber, sulphorhodamine B), HCT116; format: cell-based, human; details: for DR (Deactivation Ratio): DR = IC50 (prodrug)/IC50 (parent drug); for IC50: 4 h exposure, 5 days growth
Protocol: (§5) We also checked if the designed prodrugs were able to liberate the active alkaloids in hypoxic tumors by testing them under hypoxic conditions using an anaerobic chamber. The three prodrugs 5a–c and their parent alkaloids as well as the reference compounds PR-104A, the parent alcohol form of the phosphate pre-prodrug PR-104, and evofosfamide were tested using the HCT116 and H460 cell lines under both normoxic and hypoxic conditions (Table 5). The prodrugs were much less cytotoxic than the parent drugs, in agreement with our observations using the other cell lines described above (Figure 6).
(§6) The extent to which a prodrug is deactivated relative to its parent drug under normoxic conditions is defined as the Deactivation Ratio (DR). The DR can be simply calculated as DR = IC50 (prodrug)/IC50 (parent drug).
(§7) The efficacy of prodrug activation under hypoxic conditions can be expressed by the Hypoxia Cytotoxicity Ratio (HCR), which can be calculated for a given prodrug as: HCR = normoxic IC50/hypoxic IC50.
as §4

H460 = test: Cytotoxicity under normoxia and hypoxia (anaerobic chamber, sulphorhodamine B), H460; format: cell-based, human; details: for DR (Deactivation Ratio): DR = IC50 (prodrug)/IC50 (parent drug); for IC50: 4 h exposure, 5 days growth
Protocol: as §5, §6, §7, §4

[8] = Homo sapiens, HCT-116, HCT116, hypoxia, read-out: IC50 (Hypoxia)
[9] = Homo sapiens, HCT-116, HCT116, normoxia, read-out: IC50 (Normoxia)
[10] = Homo sapiens, NCI-H460, H460, hypoxia, read-out: IC50 (Hypoxia)
[11] = Homo sapiens, NCI-H460, H460, normoxia, read-out: IC50 (Normoxia)
[12] = HCT116, HCR = normoxic IC50/hypoxic IC50
[13] = H460, HCR = normoxic IC50/hypoxic IC50

Compound | solubility [1] [µM] | logD (LogD determination) | Permeability (Papp) [2] | fraction unbound [3] | half-life at 1 μM [4] [h] | half-life at 1 μM [5] [h] | IC50 (HEK293) [nM] | IC50 (CHO-K1) [nM] | IC50 (MCF7) [nM] | IC50 (HCT116 [6]) [nM] | IC50 (RKO) [nM] | IC50 (SW480) [nM] | IC50 (MRC5) [nM] | HCR (Hypoxia Cytotoxicity Ratio) (HCT116 [7]) | DR (Deactivation Ratio) (HCT116 [7]; HCT116, normoxia) | IC50 (HCT116 [7]; [8]) [nM] | IC50 (HCT116 [7]; [9]) [nM] | HCR (Hypoxia Cytotoxicity Ratio) (H460) | IC50 (H460; [10]) [nM] | IC50 (H460; [11]) [nM] | also measured
COc1ccc2c3c(c4cc(OC)c(OC)cc4c2c1)C[C@H]1CCC[N+]1(Cc1c([N+](=O)[O-])ncn1C)C3.[Br-] (stereo partly drawn) [Compound 5a, (13aR)-2,3,6-trimethoxy-10-((1-methyl-4-nitro-1H-imidazol-5-yl)methyl)-10,11,12,13,13a,14-hexahydro-9H-dibenzo[f,h]pyrrolo[1,2-b]isoquinolin-10-ium bromide] | 154 | […] | […] | 0.13 | […] | 145 ± 4.7 | 5080 ± 519 | […] | 1530 ± 144 | 1040 ± 21 | 2030 ± 267 | 1350 ± 0.126 | 327 ± 147 | 8.8 | […] | 425 ± 51 | […] | 26 | 618 ± 44 | 15800 | Kel (elimination rate constant) (in vitro; mouse, 2 μM): […]; metabolized into the parent drug (in vitro; mouse, microsomes, 2 μM): […]; half-life at 2 μM (in vitro; mouse, microsomes): […]; DR (Deactivation Ratio) (H460; H460, normoxia): […]
COc1cc2c3c(c4cc(OC)c(OC)cc4c2cc1OC)CN1CCC[C@H]1C3 [(S)-Tylophorine] | 2 (≈ 0.787 µg/mL) | 3.14 ± 0.02 | −5.4 ± 0.17 Log [10^−6 cm/s] | 0.061 | – | – | 16 ± 26 | 35 ± 42 | 62 ± 13 | 85 ± 6 | 202 ± 3 | 69 ± 20 | 27 ± 2 | – | – | 50.1 ± 18 | 35.1 ± 15 | – | 102 ± 32 | 108 ± 28 | half-life at 2 μM (in vitro; microsomes): 2.12 ± 0.05 h; HCR (Hypoxia Cytotoxicity Ratio) (HCT116 [7]; [12]): 0.5; HCR (Hypoxia Cytotoxicity Ratio) (H460; [13]): 1.1
CC(C)[N+](C)(CCOC(=O)C1c2ccccc2Oc2ccccc21)C(C)C [Propantheline] | – | – | – | – | < 3 | < 3 | – | – | – | – | – | – | – | – | – | – | – | – | – | – | –
CS(=O)(=O)OCCN(CCBr)c1c(C(=O)NCCO)cc([N+](=O)[O-])cc1[N+](=O)[O-] [PR-104A] | – | – | – | – | – | – | – | – | – | – | – | – | – | – | – | – | – | – | – | – | IC50 (HCT116 [7]; HCT116, hypoxia, read-out: IC50 (Hypoxia)): 861 ± 122 nM; IC50 (HCT116 [7]; HCT116, normoxia, read-out: IC50 (Normoxia)): 16500 nM; HCR (Hypoxia Cytotoxicity Ratio) (HCT116 [7]; [12]): 10.5; IC50 (H460; H460, hypoxia, read-out: IC50 (Hypoxia)): 533 ± 47 nM; IC50 (H460; H460, normoxia, read-out: IC50 (Normoxia)): 1340 ± 386 nM; HCR (Hypoxia Cytotoxicity Ratio) (H460; [13]): 2.5
Cc1nccn1CC1CCc2c(c3ccccc3n2C)C1=O (centres unmarked) [Ondansetron] | 96 ± 3 (≈ 28.2 µg/mL) | – | – | – | – | – | – | – | – | – | – | – | – | – | – | – | – | – | – | – | –
COc1cc2c3c(c4cc(OC)c(OC)cc4c2cc1OC)C[N+]1(Cc2c([N+](=O)[O-])ncn2C)CCC[C@@H]1C3.[Br-] (stereo partly drawn) [Compound 5c, (13aR)-2,3,6,7-tetramethoxy-10-((1-methyl-4-nitro-1H-imidazol-5-yl)methyl)-10,11,12,13,13a,14-hexahydro-9H-dibenzo[f,h]pyrrolo[1,2-b]isoquinolin-10-ium bromide] | – | – | – | – | – | – | – | – | 8050 ± 343 | 9020 ± 1130 | 8820 ± 3080 | 9860 ± 1690 | 3940 ± 127 | 1.5 | 128 | 3020 ± 656 | 9060 ± 7590 | 7.8 | 6500 ± 1810 | 51000 | DR (Deactivation Ratio) (H460; H460, normoxia): 293; melting point: 185 to 187 °C
